In patent US20250057960A1, “OLIGOSACCHARIDE COMPLEXES AND USES” (BioNTech SE, priority 2021, published 2025):

How the values were obtained:
human PBMCs = test: Pro-inflammatory cytokine secretion in human PBMCs with alternative TLR inhibitors (Example 14); assay type: cell-based; conditions: in JLF218+Tween40+TL2-C29 (1:0.5:0.5) modRNA formulation, N/P6; 24 hours after transfection
Method: The present example evaluated the impact of different TLR inhibitors. Pro-inflamatory cytokine secretion in human PBMCs was evaluated for two different oligosaccharide formulations (JLF218 and JLF244) in combination with either TAK-242 or TL2-C29. Six formulations were tested, as illustrated in table below: […]
All formulations were complexed with modRNA (coding for firefly luciferase) formulated at N/P6. Formulations were complexed in MBG Buffer (final concentration 5% w/v Glucose, 10 mM MES, pH 6.1), at RNA final concentration of 0.15 mg/mL and the mixing ratio of the RNA containing solution and the oligosccharide+Tween40 (+TAK-242 or TL2-C29 as indicated) containing solution was 9:1 (v:v) for all the cases.
IL-6, TNFα, IL1b, IFNg, MIP1b, IP10 and MCP1 secretion was evaluated 24 hours after transfection of 1e^6 human PMBCs in supernatant using the MSD Kit Standard Protocol. Cell viability was evaluated using a XTT Standard Assay. In the following figures, C29 refers to TL2-C29. FIG. 12A is a plot illustrating IL-6 secretion of human PBMCs (hPMBCs) for different doses of tested formulations. FIG. 12B is a plot illustrating TNFa secretion of hPBMCs for different doses of tested formulations. FIG. 12C is a plot illustrating IL1b secretion of hPBMCs for different doses of tested formulations. […]

hPBMCs = test: Secretion of pro-inflammatory cytokines and chemokines in hPBMCs after transfection with modRNA formulations (Example 10); assay type: cell-based, human; conditions: incorporated into cationic oligosaccharide (JLF218)+Tween40 modRNA complex, 1:0.5:0.5 molar ratio, N/P6; 24 hours after transfection; FIGS. 10A to 10D
Excerpt: The present example provides complexes comprising a third component which can inhibit the immune response against the expressed protein from the delivered RNA, avoiding pro-inflammatory signals that can hamper the therapeutic effect of RNA-therapy. In the present experiment, a TLR4 inhibitor molecule, TAK-242, was used alone or together with a wide spectrum immunosuppressor, dexamethasone, in combination with cationic oligosaccharides described herein+Tween40 to formulate modRNA encoding for luciferase.
In the first part of the experiment, secretion of pro-inflammatory cytokines in hPBMCs was evaluated for two different cationic oligosaccharides: JLF218 and PRX093, whereas different combinations including TAK-242 and/or Dexamethasone are tested. […] IL-6, TNF-α, IL-1β, IFN-γ, MIP-1β, IP-10 and MCP-1 secretion after 24 hours of transfection of 5×105 hPMBCs was evaluated in the supernatants using MSD Kit Standard Protocol. Primary human hepatocytes were transfected with a dose variation between 0.01-1 μg of modRNA and luciferase expression is evaluated over the course of 6 days.
FIG. 10A is a scatter plot illustrating quantified IL-6 secretion in hPBMCs upon exposure to different doses of tested formulations. FIG. 10B is a scatter plot illustrating quantified TNF-α secretion in hPBMCs upon exposure to different doses of tested formulations. […]

Structure (SMILES) | secretion of pro-inflammatory cytokines (human PBMCs) | secretion of pro-inflammatory cytokines (IL-6, TNF-α, IL-1β, IFN-γ) (hPBMCs)
COc1cccc(/C=N/c2cccc(C(=O)O)c2C)c1O [TL2-C29] | able to inhibit | –
CCOC(=O)C1=CCCC[C@H]1S(=O)(=O)Nc1ccc(F)cc1Cl [TAK-242] | – | reduction of pro-inflammatory cytokines
